US9687479B2, “Multisubstituted aromatic compounds as serine protease inhibitors” (VERSEON CORPORATION, priority 2013, dated 2017)
pIC50: −log10 of the molar value. Read-outs that look alike come from different tables or passages of the source.

Key:
Human thrombin = Human thrombin (Homo sapiens (Human), UniProt P00734); test: Thrombin protease activity inhibition assay (chromogenic substrate S-2238); type: biochemical; conditions: 3 nM thrombin, 125 μM S-2238, 10 min pre-incubation, RT
Outline: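 Thrombin at 3 nM final in 0.05 M Tris pH 7.4, 0.015 M NaCl, 0.01% PEG-8000, at room temperature; compounds as ten-point three-fold dilutions.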

[1] = target: Recombinant human tissue kallikrein (KLK1) (Homo sapiens (Human), UniProt P06870); test: KLK1 kallikrein activity inhibition assay (Pro-Phe-Arg-AMC substrate); type: biochemical
Sequence of Recombinant human tissue kallikrein (KLK1) (P06870 25-262): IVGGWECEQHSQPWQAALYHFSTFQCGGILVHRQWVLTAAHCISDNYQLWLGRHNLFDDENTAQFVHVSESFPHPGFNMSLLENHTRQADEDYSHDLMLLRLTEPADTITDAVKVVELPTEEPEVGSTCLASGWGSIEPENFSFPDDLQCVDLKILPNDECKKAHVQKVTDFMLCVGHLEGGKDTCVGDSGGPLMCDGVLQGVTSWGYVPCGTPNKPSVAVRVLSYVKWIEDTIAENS
Method: The KLK1 kallikrein activity reported herein (e.g., Tables B and C) was obtained as follows. Recombinant human tissue kallikrein (KLK1) was obtained from R&D Systems. […] KLK1 enzyme is activated by incubating 0.5 mg/ml KLK1 combined with 0.1 μg/ml thermolysin in a buffer of 0.05 M Tres (pH 7.5), 0.15 M NaCl, and 0.01 M CaCl2 for one hour at 37° C. The thermolysin is then deactivated by the addition of equal parts 20 mM 1, 10 phenanthroline solution in water. The activated KLK1 solution is then added to CHES buffer (0.05 M CHES, 0.15 M NaCl, 0.01 M CaCl2, pH 10) for a final concentration of 5 nM along with the test article and incubated for 10 minutes. […] Substrate activation is read 10 minutes after substrate addition using a Synergy H1 multifunction plate reader (Biotek) programmed with a 360 nm excitation wavelength and a 480 nm emission wavelength. Inhibitor response was established by adding test compound as ten point, three-fold serial dilutions, as known in the art. The IC50 was calculated by plotting the percent (%) inhibition against compound concentration and fitting the data to a constrained four parameter sigmoidal curve, as known in the art.

Human KLKB1 = Human KLKB1 (Homo sapiens (Human), UniProt P03952); test: KLKB1 kallikrein activity inhibition assay (chromogenic substrate S-2302); type: biochemical
Sequence of Human KLKB1 (P03952 391-638 limits assumed): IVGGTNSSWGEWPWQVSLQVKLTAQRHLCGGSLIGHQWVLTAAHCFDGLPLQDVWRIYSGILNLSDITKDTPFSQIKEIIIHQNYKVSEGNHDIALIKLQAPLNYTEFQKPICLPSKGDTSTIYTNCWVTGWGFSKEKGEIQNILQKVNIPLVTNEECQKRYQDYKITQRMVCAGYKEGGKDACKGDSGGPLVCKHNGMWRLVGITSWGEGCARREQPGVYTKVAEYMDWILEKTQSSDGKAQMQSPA
Sequence of Human KLKB1 (P03952 20-390 partner limits assumed): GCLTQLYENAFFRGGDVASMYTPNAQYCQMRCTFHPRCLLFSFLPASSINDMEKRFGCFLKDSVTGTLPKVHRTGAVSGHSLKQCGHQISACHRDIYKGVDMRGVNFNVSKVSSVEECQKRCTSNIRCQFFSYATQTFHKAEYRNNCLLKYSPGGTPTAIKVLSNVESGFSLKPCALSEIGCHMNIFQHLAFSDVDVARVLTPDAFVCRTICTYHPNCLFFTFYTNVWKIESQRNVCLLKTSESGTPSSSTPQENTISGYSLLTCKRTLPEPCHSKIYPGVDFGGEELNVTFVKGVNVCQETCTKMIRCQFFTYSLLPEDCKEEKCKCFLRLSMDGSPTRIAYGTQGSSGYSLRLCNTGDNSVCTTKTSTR
Outline: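 Enzyme at a final 3 nM was assayed in 0.05 M Tris pH 7.4, 0.01 M NaCl and 0.2% PEG-8000 at room temperature, with compounds as ten-point threefold dilutions.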

[2] = Pharmacokinetics in mice (i.v. and p.o.); type: in vivo, male CD-1 mice; conditions: plasma
Method: Each compound is administered intravenously (i.v.) as a single dose via tail vein or orally (p.o.) as a single dose via gastric gavage to male CD-1 mice of nominal weights between 20 g and 26 g. Nominal doses are 1 mg/kg and 5 mg/kg for i.v. and p.o., respectively. In some examples (dose type A), both p.o. and i.v. doses are prepared by dissolving the test compound in 5% dimethyl acetamide and diluted in tetraethylene glycol for a final concentration of 0.25 mg/mL. In other examples (dose type B), i.v. doses are prepared by dissolving test compounds in 20% dimethyl acetamide, 40% polyethylene glycol 300 and 40% phosphate buffered saline, and p.o. doses are prepared by dissolving test compounds in carboxymethyl cellulose suspension (1% by weight) in water and 2.5% dimethyl acetamide.
Animals are housed in standard holding cages with food and water available ad libitum except for animals used for p.o. dosing which are fasted overnight prior to dosing. Samples are taken in triplicate via cardiac puncture at times prior to dosing and at 0.083 (i.v. only), 0.25, 0.5, 1, 2, 4, 8, and 24 hours after administration. Plasma is obtained by centrifuge and stored frozen until analyzed by LC-MS/MS using a Shimadzu VP System HPLC coupled to a Applied Biosystems MDS SCIEX API 3000 triple quadrapole MS. Assay results are calibrated using reference samples prepared in a range between 1.5 and 5000 ng/mL.
Pharmacokinetic parameters are calculated from mean concentration values using a non-compartmental analysis as described in the following and as apparent to those of ordinary skill in the art. Half-lives (t1/2) and elimination rate constants (λ) are determined by log linear regression using equal weighting on the last three finite sample time points. Concentration at time zero (C0) for the i.v. data is established by the extrapolation of log linear regression using equal weighting on the first three sample time points. Area under the curve (AUC) values are calculated using linear trapezoidal integration. Systemic clearance (CL) is calculated as the ratio of dosage and AUC. […] Percent oral bioavailability (% F) is determined from the ratio of i.v. and p.o. AUC values weighted by dosage.

SMILES | pIC50 (Human thrombin) | pIC50 ([1]; Table B) | pIC50 (Human KLKB1; Table B) | pIC50 ([1]; Table C) | pIC50 (Human KLKB1; Table C) | also measured
Cc1ccccc1C(=O)n1nc(-c2ccccn2)nc1NCc1ccc(Cl)s1 [Cmpd 391] | – | – | – | 4.00 to 5.00 | 6.00 to 7.00 | –
COc1ccc(C(=O)n2nc(C3CCOCC3)nc2NCc2ccc(Cl)s2)c(OC)c1 [Cmpd 384] | – | – | – | 4.00 to 5.00 | 6.00 to 7.00 | –
O=C(c1ccccc1)n1nc(-c2ccccn2)nc1NCc1ccccc1 [Cmpd 362] | – | – | – | 4.00 to 5.00 | 6.00 to 7.00 | –
O=C(c1ccoc1)n1nc(C2CCOCC2)c(F)c1NCc1ccc(Cl)s1 [Cmpd 294] | – | < 4.00 | 5.00 to 6.00 | – | – | –
COc1ccc(CNc2nc(-c3cccnc3)nn2C(=O)c2ccccc2)cc1 [Cmpd 361] | – | – | – | 5.00 to 6.00 | 5.00 to 6.00 | –
COc1ccccc1C(=O)n1nc(-c2ccccn2)nc1NCc1nccs1 [Cmpd 332] | – | – | – | 6.00 to 7.00 | 4.00 to 5.00 | –
O=C(O)Cn1cccc(-c2cc(NCc3ccc(Cl)s3)[nH]n2)c1=O [Cmpd 59, 2-[3-(5-[(5-chlorothiophen-2-yl)methyl]amino-1H-pyrazol-3-yl)-2-oxo-1,2-dihydropyridin-1-yl]acetic acid] | 4.00 to 5.00 | < 4.00 | 5.00 to 6.00 | – | – | –
COc1ccc(CNc2nc(-c3ccccn3)nn2C(=O)CCc2ccccc2)cc1 [Cmpd 323] | – | – | – | 4.00 to 5.00 | 5.00 to 6.00 | –
COc1ccc(CNc2nc(-c3ccccn3)nn2C(=O)c2ccccc2)cc1 [Cmpd 360] | – | – | – | 5.00 to 6.00 | 5.00 to 6.00 | –
COc1ccccc1C(=O)n1nc(-c2cccnc2)nc1SC [Cmpd 366, 3-1-[(2-methoxyphenyl)carbonyl]-5-(methylsulfanyl)-1H-1,2,4-triazol-3-ylpyridine] | – | – | – | 5.00 to 6.00 | 5.00 to 6.00 | –
O=C(c1ccsc1)n1nc(-c2ccncc2)nc1NCc1ccccc1 [Cmpd 407] | – | – | – | < 4.00 | 6.00 to 7.00 | –
COc1ccccc1C(=O)n1nc(-c2ncccn2)nc1NCc1ccccc1 [Cmpd 18] | – | – | – | 4.00 to 5.00 | 6.00 to 7.00 | –
CC(C)(C)C(=O)n1nc(C2CCNCC2)c(F)c1NCc1ccc(Cl)s1 [Cmpd 24] | – | – | – | – | – | bioavailability ([2]; male, CD-1, mouse, po, 5 mg/kg, read-out: % F): 70%; AUC ([2]; mouse, iv, male CD-1 mice, single i.v. dose 1 mg/kg, dose type A (5% dimethyl acetamide, tetraethylene glycol), read-out: i.v. AUC): 200 ng·h/mL; C0 ([2]; mouse, iv, male CD-1 mice, single i.v. dose 1 mg/kg, dose type A (5% dimethyl acetamide, tetraethylene glycol), read-out: i.v. C0): 200 ng/mL; clearance ([2]; mouse, iv, male CD-1 mice, single i.v. dose 1 mg/kg, dose type A (5% dimethyl acetamide, tetraethylene glycol), read-out: i.v. CL (converted)): 83.3 mL/min/kg; Vd ([2]; mouse, iv, male CD-1 mice, single i.v. dose 1 mg/kg, dose type A (5% dimethyl acetamide, tetraethylene glycol), read-out: i.v. Vd): 8 L/kg; half-life ([2]; mouse, iv, male CD-1 mice, single i.v. dose 1 mg/kg, dose type A (5% dimethyl acetamide, tetraethylene glycol), read-out: i.v. t1/2 (converted)): 1 h; AUC ([2]; mouse, po, male CD-1 mice, single p.o. dose 5 mg/kg, dose type A (5% dimethyl acetamide, tetraethylene glycol), read-out: p.o. AUC): 600 ng·h/mL; half-life ([2]; mouse, po, male CD-1 mice, single p.o. dose 5 mg/kg, dose type A (5% dimethyl acetamide, tetraethylene glycol), read-out: p.o. t1/2 (converted)): 1 h
O=C(c1ccsc1)n1nc(-c2ccccn2)cc1NCc1ccc(Cl)s1 [Cmpd 293] | – | < 4.00 | 6.00 to 7.00 | – | – | –
O=C(c1ccsc1)n1nc(-c2cccnn2)cc1NCc1ccc(Cl)s1 [Cmpd 292] | – | < 4.00 | 6.00 to 7.00 | – | – | –

Further lines, with some results ahead:

pIC50 (Human thrombin) | pIC50 ([1]; Table B) | pIC50 (Human KLKB1; Table B) | pIC50 ([1]; Table C) | pIC50 (Human KLKB1; Table C) | SMILES | also measured
> 7.00 | < 4.00 | 6.00 to 7.00 | – | – | COc1ccccc1C(=O)n1nc(-c2cccn(Cc3cccnn3)c2=O)cc1NCc1ccc(Cl)s1 [Cmpd 138, 3-(5-[(5-chlorothiophen-2-yl)methyl]amino-1-[(2-methoxyphenyl)carbonyl]-1H-pyrazol-3-yl)-1-(pyridazin-3-ylmethyl)-1,2-dihydropyridin-2-one] | –
> 7.00 | < 4.00 | 6.00 to 7.00 | – | – | O=C(c1ccc(N2CCOCC2)cc1)n1nc(-c2cccn(Cc3cccnc3)c2=O)cc1NCc1ccc(Cl)s1 [Cmpd 213, 3-(5-[(5-chlorothiophen-2-yl)methyl]amino-1-[4-(morpholin-4-yl)phenyl]carbonyl-1H-pyrazol-3-yl)-1-(pyridin-3-ylmethyl)-1,2-dihydropyridin-2-one] | –
– | 4.00 to 5.00 | 5.00 to 6.00 | – | – | Nc1ccccc1C(=O)n1nc(-c2ncccc2F)cc1NCc1ccc(Cl)s1 [Cmpd 276] | –
– | – | – | 4.00 to 5.00 | > 7.00 | COc1ccccc1C(=O)n1nc(C2CCNCC2)nc1NCc1ccc(Cl)s1 [Cmpd 387] | –
– | 4.00 to 5.00 | 5.00 to 6.00 | – | – | Nc1ccccc1C(=O)n1nc(-c2ccco2)cc1NCc1ccc(Cl)s1 [Cmpd 277] | –
> 7.00 | < 4.00 | 5.00 to 6.00 | – | – | COc1ccccc1C(=O)n1nc(-c2ccc[nH]c2=O)cc1NCc1ccc(Cl)s1 [Cmpd 132, 3-(5-[(5-chlorothiophen-2-yl)methyl]amino-1-[(2-methoxyphenyl)carbonyl]-1H-pyrazol-3-yl)-1,2-dihydropyridin-2-one] | –
> 7.00 | < 4.00 | 6.00 to 7.00 | – | – | O=C(c1ccccc1Cl)n1nc(-c2cccn(Cc3ccncc3)c2=O)cc1NCc1ccc(Cl)s1 [Cmpd 248, 3-1-[(2-chlorophenyl)carbonyl]-5-[(5-chlorothiophen-2-yl)methyl]amino-1H-pyrazol-3-yl-1-(pyridin-4-ylmethyl)-1,2-dihydropyridin-2-one] | –
– | – | – | 4.00 to 5.00 | 6.00 to 7.00 | COc1ccccc1C(=O)n1nc(-c2ccc(N(C)C)cc2)nc1NCc1ccc(Cl)s1 [Cmpd 393] | –
> 7.00 | < 4.00 | 6.00 to 7.00 | – | – | COCCn1cccc(-c2cc(NCc3ccc(Cl)s3)n(C(=O)c3ccccc3Cl)n2)c1=O [Cmpd 242, 3-1-[(2-chlorophenyl)carbonyl]-5-[(5-chlorothiophen-2-yl)methyl]amino-1H-pyrazol-3-yl-1-(2-methoxyethyl)-1,2-dihydropyridin-2-one] | –
> 7.00 | < 4.00 | 5.00 to 6.00 | – | – | COc1ccccc1C(=O)n1nc(-c2cccn(CC(=O)N3CCOCC3)c2=O)cc1NCc1ccc(Cl)s1 [Cmpd 145, 3-(5-[(5-chlorothiophen-2-yl)methyl]amino-1-[(2-methoxyphenyl)carbonyl]-1H-pyrazol-3-yl)-1-[2-(morpholin-4-yl)-2-oxoethyl]-1,2-dihydropyridin-2-one] | –
> 7.00 | < 4.00 | > 7.00 | – | – | O=C(c1ccccc1Cl)n1nc(-c2cccn(Cc3cccnc3)c2=O)cc1NCc1ccc(Cl)s1 [Cmpd 247, 3-1-[(2-chlorophenyl)carbonyl]-5-[(5-chlorothiophen-2-yl)methyl]amino-1H-pyrazol-3-yl-1-(pyridin-3-ylmethyl)-1,2-dihydropyridin-2-one] | –
> 7.00 | < 4.00 | 5.00 to 6.00 | – | – | CC(C)(C)C(=O)n1nc(-c2cccn(Cc3cccnn3)c2=O)cc1NCc1ccc(Cl)s1 [Cmpd 81, 3-(5-[(5-chlorothiophen-2-yl)methyl]amino-1-(2,2-dimethylpropanoyl)-1H-pyrazol-3-yl)-1-(pyridazin-3-ylmethyl)-1,2-dihydropyridin-2-one] | –
> 7.00 | 4.00 to 5.00 | 6.00 to 7.00 | – | – | O=C(c1cccc2c1OCCO2)n1nc(-c2cccn(Cc3ccccn3)c2=O)cc1NCc1ccc(Cl)s1 [Cmpd 113, 3-(5-[(5-chlorothiophen-2-yl)methyl]amino-1-[(2,3-dihydro-1,4-benzodioxin-5-yl)carbonyl]-1H-pyrazol-3-yl)-1-(pyridin-2-ylmethyl)-1,2-dihydropyridin-2-one] | –
– | < 4.00 | 5.00 to 6.00 | – | – | COc1ccccc1C(=O)n1nc(C2CCCCC2O)cc1NCc1ccc(Cl)s1 (centres unmarked) [Cmpd 282] | –
